The record followed here is patent US8119643B2, “Benzoimidazolyl-pyrazine compounds for inflammation and immune-related uses” (Synta Pharmaceuticals Corp., priority 2006, dated 2012).

Entries after “also recorded” stand apart in the source; their conditions may differ.

One experiment concerns IL-2 production. The experiment is described as follows: Inhibition of IL-2 production in PHA-activated Jurkat cells (ELISA). The experiment is classed as cell-based. Particulars: Homo sapiens, PHA 2.5 μg/mL, 20 hours, IL-2 ELISA.
Experiment [1] relates to Delayed-Type Hypersensitivity (DTH) reaction. The experiment is described as follows: Inhibition of delayed-type hypersensitivity (DTH) reaction in rats. The experiment is classed as in vivo, Lewis rats. To be noted: rat DTH; for Inhibition of gross change (%) Ear thickness (mm) / Inhibition of gross change (%) Ear weight (mg): 15 mg/kg orally at −2, +3, +9 hr, 24 hr after OVA challenge, relative to vehicle-treated group; for effect on ear weight after ovalbumin challenge / effect on ear thickness after ovalbumin challenge: compared to vehicle alone; for effect on ear weight after ovalbumin challenge: FIGS. 1 and 2; for effect on ear thickness after ovalbumin challenge: FIGS. 3 and 4. How it is done: Lewis rats (n=7 each group) were sensitized with chicken ovalbumin (OVA; Sigma, A5503) and complete Freund's adjuvant (CFA; Sigma F5881) was injected into tail base by s.c. on day 0. On day 7, the animals were challenged with ovalbumin (OVA) on their right ears.
Compounds 1 and 10 were prepared in vehicle solution (20% Vitamin E TPGS and 80% PEG-8).
Female Lewis rats, 6-8 weeks of age, were obtained from Charles River Laboratories and permitted to acclimate for one week prior to experimental procedures. Rodents were allowed water and food ad libitum. Animals were housed in accordance with the Institutional Animal Care and Use Committee (IACUC), and experiments were performed in compliance with IACUC guidelines.
Rat ears were measured with a dial thickness gauge (Mitutoyo gauge #8, Mitutoyo, USA). The swelling response was calculated by subtracting the ear thickness before challenge (baseline) from that of the same ear after challenge. To measure the ear weight, both left and right ears of euthanized rats were punched out with cork holer, the ear weight change was calculated by subtracting the saline-treated left ear weight from that of the OVA-challenged right ear weight.
Delayed-type hypersensitivity is an in vivo T cell-dependent immune response manifested as an inflammatory reaction that reaches peak intensity 24 hr after OVA challenge. To determine the immunosuppressive effect of Compounds 1 and 10 in the rat DTH reaction, groups of rats (n=7) were administered with either vehicle, Compound 1 or Compound 10, orally three times, starting 2 hr before ear challenge, and 3 and 9 hr after ear challenge.

One may read the IC50 as the point on the concentration scale where inhibition reaches its midpoint. The low end stands for greater potency in that assay, the high end for weaker potency in that assay. Turning to `COc1ccc2c(c1)nc(C(F)(F)F)n2-c1cnc(NC(=O)c2c(F)cccc2F)cn1` [Compound 1, 2,6-Difluoro-N-[5-(5-methoxy-2-trifluoromethyl-benzoimidazol-1-yl)-pyrazin-2-yl]-benzamide], 6 nM corresponded to half-maximal inhibition with IL-2 production (IC50). Besides, in experiment [1], the “Inhibition of gross change (%) Ear thickness (mm)” value is 77%, the “Inhibition of gross change (%) Ear weight (mg)” value turned out to be 79%, the “effect on ear weight after ovalbumin challenge” value is recorded as “decreased ear weight; also recorded: significantly inhibited” and the “effect on ear thickness after ovalbumin challenge” value is on record as “decreased ear thickness; also recorded: significantly inhibited”.
In the experiment with IL-2 production, `COc1ccc2c(c1)nc(C(F)(F)F)n2-c1cnc(NC(=O)c2ccccc2C)cn1` [Compound 10, N-[5-(5-Methoxy-2-trifluoromethyl-benzoimidazol-1-yl)-pyrazin-2-yl]-2-methyl-benzamide] had an IC50 of 12 nM. Besides, in experiment [1], the “Inhibition of gross change (%) Ear thickness (mm)” value was 15%; the “Inhibition of gross change (%) Ear weight (mg)” value came to 24%; the “effect on ear weight after ovalbumin challenge” value is “even stronger effect on reducing ear thickness and weight after challenge than Compound 1; also recorded: reduced ear thickness and weight after challenge more than dosing with cyclosporine A”; the “effect on ear thickness after ovalbumin challenge” value was “even stronger effect on reducing ear thickness and weight after challenge than Compound 1; also recorded: reduced ear thickness and weight after challenge more than dosing with cyclosporine A”.
